Results from patent US20250360155A1, “METHOD OF TREATING SPINAL CORD INJURY AND COMPOSITION FOR USE THEREIN” (ACADEMIA SINICA, priority 2022, published 2025).

Columns and labels:
C57BL/6J mice with SCI [1] = assay: RT-qPCR of inflammatory cytokines in spinal cord after spinal cord contusion; assay type: in vivo, mouse; details: J4 10 mg/kg twice a day; perilesional area, 14 days post-injury; vs vehicle
Protocol: (§1) Mice were anesthetized by intramuscular injection of Zoletil® (50 mg/kg; tiletamine hydrochloride and zolazepam hydrochloride) and Rompun® (12 mg/kg; xylazine hydrochloride) before the surgery. After laminectomy on the T9-T10 vertebral column, the spinal cord was exposed and contused by a 10 g rod with an impact head of 1.2 mm diameter at the height of 6.25 mm above the T10 spinal cord to allow it to drop using an Impactor model-II spinal cord contusion system (RWD6809911) to cause the contusion injury. In the sham group, surgery procedures were identical except for the spinal contusion. After the injury, the wound was quickly sutured using 4.0 silk thread (Unik Taiwan; New Taipei city, Taiwan). The bladders of mice were manually and gently massaged once a day to avoid retention of urine until the reflexive control of micturition was restored. Cefazolin (300 mg/kg) was given for consecutive three days after surgery to prevent infection. Fourteen days after the surgery, mice were sacrificed for analyses.
In one example for the treatment of J4, which can be used as an ENT1 inhibitor, male C57BL/6J mice (8-12 weeks old) were divided into three groups: the sham group, the SCI+J4 group and the SCI+vehicle group. Please refer to FIG. 1. In the J4 group, mice were pretreated with 10 mg/kg J4 twice a day for three days before the injury. Following the SCI, J4 (10 mg/kg) was administered to mice twice a day for consecutive 14 days. […]
Mice were anesthetized by the inhalation of isoflurane. […] Total RNA isolation, quality check, cDNA synthesis and SYBR green based quantitative real-time PCR assay were performed as described previously.^7 The forward/reverse primer sequences for IL-1β, IL-6, TNF-α, and GAPDH were listed in Table 1. The relative expression of target genes normalized to that of glyceraldehyde 3-phosphate dehydrogenase (GAPDH) was calculated by the comparative Ct (ΔCt) and was expressed as 2−ΔCt. The relative quantity was determined by the formula: 2−ΔΔCt, in which ΔΔCt values were obtained by subtracting the ΔCt values of mice with SCI from the sham controls.

C57BL/6J mice with SCI [2] = assay: Nissl staining of spinal cord lesion after spinal cord contusion; assay type: in vivo, mouse; details: vs vehicle
Protocol: as §1
In one example for the treatment of J4, which can be used as an ENT1 inhibitor, male C57BL/6J mice (8-12 weeks old) were divided into three groups: the sham group, the SCI+J4 group and the SCI+vehicle group. Please refer to FIG. 1. In the J4 group, mice were pretreated with 10 mg/kg J4 twice a day for three days before the injury. […]

C57BL/6J mice with SCI [3] = assay: Behavioral tests (Basso Mouse Scale, footprint analysis) after spinal cord contusion; assay type: in vivo; details: vs vehicle
Protocol: as §1
(§2) In one example for the treatment of J4, which can be used as an ENT1 inhibitor, male C57BL/6J mice (8-12 weeks old) were divided into three groups: the sham group, the SCI+J4 group and the SCI+vehicle group. Please refer to FIG. 1. In the J4 group, mice were pretreated with 10 mg/kg J4 twice a day for three days before the injury. Following the SCI, J4 (10 mg/kg) was administered to mice twice a day for consecutive 14 days. In vehicle group, mice were treated with 5% DMSO, instead of J4, following the same protocol of the J4-treated group. The sham group received the same treatment as the vehicle group. All mice were maintained on a 12 h light/dark schedule and given food and water ad libitum in the Laboratory Animal Center (an AAALAC accredited experimental animal facility) at National Taiwan University. Procedures involving animals were conducted according to the ARRIVE (Animal Research: Reporting In Vivo Experiments) guidelines.
(§3) In another example for the treatment of JMF 1907 (i.e. the compound of formula (III)), male C57BL/6J mice (8-12 weeks old) were divided into three groups: the JMF1907 group, the methylprednisolone (MPSS) group and the vehicle group. Wherein, JMF1907 (10 mg/kg twice daily for 14 days), methylprednisolone (30 mg/kg 10 min after crush, then at 2, 4, and 6 h after crush), or vehicle (0.5% DMSO, twice daily for 14 days) was administered to said mice.
The motor function after SCI was evaluated from day 3 to day 14 after the surgery by locomotor open-field rating scale on the Basso Mouse Scale (BMS).^6 Scoring ranged from 0 for complete paraplegia to 9 for normal function. The footprint analysis was assessed on day 14 after the surgery. The hindlimbs of the mice were dipped in red and black dye for left and right foot, respectively. […]

C57BL/6J mice with SCI [4] = assay: Western blot of spinal cord (T9-T11) after spinal cord contusion; assay type: in vivo, mouse; details: J4 10 mg/kg twice a day
Protocol: as §1, §2
The protein concentrations of the samples were determined by the Bio-Rad DC Protein Assay Kit (Bio-rad, Hercules, CA, USA). Protein samples (10 μg each) were diluted with loading buffer (200 mM Tris-HCl, 1.43% 2-mercaptoethanol, 0.4% bromophenol blue, and 40% glycerol) and heated at 98° C. The protein samples were then separated with 90 V for 10 minutes, followed by 130 V for 60 minutes on 12% SDS-polyacrylamide gel (for S100a10, c-caspase3 and GAPDH) or 8% SDS-polyacrylamide gel (for C3, NeuN) in running buffer (0.3% Tris base, 1.88% glycine, and 0.1% SDS). After electrophoresis, the gel was transferred onto a nitrocellulose membrane in transfer buffer (0.3% Tris base, 1.88% glycine, and 20% methanol; pH 8.3) with 300 mA for 90 minutes. Nonspecific binding to membrane was blocked by BlockPRO™ 1 Min Protein Free Blocking Buffer (Neihu, Taipei City, Taiwan) at room temperature on shaker at 25 rpm. […] Bound antibodies were detected using Chemiluminescence reagent Plus (PerkinElmer Life Sciences, MA, USA) and Bio-rad ChemiDoc™ XRS+ Systems and Image Lab™ Software to obtain images under appropriate exposure time.

C57BL/6J mice with SCI [5] = assay: Immunofluorescence staining of spinal cord perilesional area after spinal cord contusion; assay type: in vivo, mouse
Protocol: as §1, §2, §3
After being anesthetized by Zoletil® (50 mg/kg) and Rompun® (12 mg/kg), mice were intracardially perfused with ice-cold normal saline. The spinal cord (T9-T11) was removed and soaked in ice-cold 4% paraformaldehyde. The vertebrae were then placed in cassettes for paraffin embedding. The samples were cut into sagittal section of 4 μm and placed in water bath at 42° C. The section was mounted onto slides and stored at room temperature until analysis. After deparaffinization, tissue retrieval was conducted in sodium citrate buffer (pH=6) at 90° C. and the spinal cord slices were then washed with phosphate-buffered saline (PBS). Sections were incubated in antibody dilution buffer (Roche, Basel, Swiss) at room temperature. The slides were immunostained by the following primary antibodies: chicken anti-neuronal nuclear protein (NeuN) (1:2000; Merck-Millipore, Dramstadt, Germany), rabbit anti-ionized calcium-binding adapter molecule-1 (Iba-1) (1:1000; Abcam, Cambridge, MA, USA), or mouse anti-glial fibrillary acidic protein (Gfap) (1:1000; cell signaling, Danvers, Massachusetts, USA) overnight at 4° C. Corresponding secondary antibodies conjugated with Alexa Fluor 488 or Rhodamine (Jackson Immuno Research Laboratories, West Grove, PA, USA) were applied for the visualization of immunolabelling. After being washed with PBST (Phosphate Buffered Saline with Tween® 20) and PBS, the slices were mounted on a mounting gel (DAPI Fluoromount G; Southern Biotech Birmingham, Alabama, USA). Images were acquired by a Zeiss AXIO Imager M1 microscope (Carl Zeiss, Gottingen, Germany). […]

[6] = JMF1907 10 mg/kg twice daily for 14 days
[7] = JMF1907 10 mg/kg twice daily for 14 days, vs vehicle

Question: How did the “expression of IL-6 (mRNA)” value (C57BL/6J mice with SCI [1]) turn out when OC[C@H]1O[C@@H](n2cnc3c(NCc4ccc(Br)s4)ncnc32)[C@H](O)[C@@H]1O [J4, N^6-[(5-bromothien-2-yl)methyl]adenosine] was run?
Answer: Its value is “trend of reduction”.

Question: And the “expression of IL-10 (mRNA)” value (C57BL/6J mice with SCI [1])?
Answer: The value was “trend of reduction”.

Question: What about the “expression of TNF-α (mRNA)” value (C57BL/6J mice with SCI [1]) of the same compound?
Answer: The value was “significantly reduced”.

Question: What about the “loss of spinal cord tissue (lesion volume, Nissl staining)” value (C57BL/6J mice with SCI [2]; J4 10 mg/kg twice a day, 14 days post-injury) of the same compound?
Answer: The value was “significantly reduced”.

Question: What about the “stride length (footprint analysis)” value (C57BL/6J mice with SCI [3]; J4 10 mg/kg twice a day, 3 days before and 14 days after SCI, 14 DPI) of the same compound?
Answer: The value was “improved”.

Question: And the BMS score (C57BL/6J mice with SCI [3]; J4 10 mg/kg twice a day, intraperitoneal, 3 days before injury and 14 days after SCI)?
Answer: Its BMS score is “improved”.

Question: What about the “protein level of c-caspase3” value (C57BL/6J mice with SCI [4]; 14 DPI, vs vehicle) of the same compound?
Answer: Its value is “decreased”.

Question: And the “protein level of NeuN” value (C57BL/6J mice with SCI [4]; 14 DPI, vs vehicle group)?
Answer: The value was “higher”.

Question: And the TGF-β protein (C57BL/6J mice with SCI [4]; vs vehicle)?
Answer: The TGF-β protein was “significantly increased”.

Question: And the “protein level of C3 (A1 astrocyte marker)” value (C57BL/6J mice with SCI [4]; vs vehicle)?
Answer: The value was “significantly decreased”.

Question: And the “protein level of S100a10 (A2 astrocyte marker)” value (C57BL/6J mice with SCI [4]; vs vehicle)?
Answer: The value was “increased”.

Question: And the “NeuN-positive cells in the perilesional area (immunostaining)” value (C57BL/6J mice with SCI [5]; J4 10 mg/kg twice a day, 14 DPI, vs vehicle)?
Answer: Its value is “more”.

Question: What about the “intensity of Iba-1-positive cells” value (C57BL/6J mice with SCI [5]; J4 10 mg/kg twice a day, perilesional area, 14 DPI, vs vehicle-treated group) of the same compound?
Answer: The value was “lower”.

Question: And the “average fluorescence intensity of Gfap” value (C57BL/6J mice with SCI [5]; J4 10 mg/kg twice a day, perilesional area, 14 days post-injury, vs vehicle group)?
Answer: The value was “remarkably decreased”.

Question: How did the “lesion of the SCI (Nissl staining)” value (C57BL/6J mice with SCI [2]; [6]) turn out when OC[C@H]1O[C@@H](n2cnc3c(NCCc4c[nH]c5ccccc45)ncnc32)[C@@H](O)C1O (stereo partly drawn) [JMF1907] was run?
Answer: The value was “significantly reduce”.

Question: And the “motor function (BMS score)” value (C57BL/6J mice with SCI [3]; [6])?
Answer: Its value is “significantly improve”.

Question: And the stride length (C57BL/6J mice with SCI [3]; [6])?
Answer: Its stride length is “significantly improve”.

Question: What about the “lesion of the SCI (immunofluorescence analysis, Pdgf§ expression)” value (C57BL/6J mice with SCI [5]; [7]) of the same compound?
Answer: The value was “significantly reduce”.

Question: And the “level of CD68 (marker for microglia)” value (C57BL/6J mice with SCI [5]; [7])?
Answer: Its value is “significantly reduced”.

Question: What about the “level of Gfap (marker for reactive astrocytes)” value (C57BL/6J mice with SCI [5]; [7]) of the same compound?
Answer: Its value is “significantly reduced”.

Question: What about the “level of Iba-1 (marker for microglia)” value (C57BL/6J mice with SCI [5]; [7]) of the same compound?
Answer: The value was “significantly reduced”.
